Active and inactive are the calls of the source. No cut-off for these calls is given here. Where a SMILES comes first, the peptide text is derived from it.
What was measured:
Type in all cases: functional, cell-based
[1] = biological target: T1, Orexin receptor type 2 (Homo sapiens) (UniProt O43614); experiment: Agonist activity at human OX2 receptor overexpressed in CHO-RD-HGA16 cells assessed as calcium mobilization at 10 uM after 15 mins by fluorescence assay relative to control
T1 sequence (whole entry): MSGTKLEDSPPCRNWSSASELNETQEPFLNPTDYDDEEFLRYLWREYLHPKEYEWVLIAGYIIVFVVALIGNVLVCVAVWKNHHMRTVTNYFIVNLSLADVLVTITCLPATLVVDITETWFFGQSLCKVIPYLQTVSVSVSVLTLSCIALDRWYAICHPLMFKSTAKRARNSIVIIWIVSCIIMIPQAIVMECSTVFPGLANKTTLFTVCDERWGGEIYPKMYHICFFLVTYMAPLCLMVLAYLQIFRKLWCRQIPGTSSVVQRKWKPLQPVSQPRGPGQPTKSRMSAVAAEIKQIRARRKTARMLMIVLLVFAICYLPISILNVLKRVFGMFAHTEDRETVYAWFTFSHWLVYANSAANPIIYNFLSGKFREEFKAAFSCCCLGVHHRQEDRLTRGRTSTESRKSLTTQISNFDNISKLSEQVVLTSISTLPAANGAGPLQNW

[2] = biological target: T2, Orexin/Hypocretin receptor type 1 (Homo sapiens) (UniProt O43613); experiment: Agonist activity at human OX1 receptor overexpressed in CHO-RD-HGA16 cells assessed as calcium mobilization at 10 uM after 15 mins by fluorescence assay relative to control
T2 sequence (whole entry): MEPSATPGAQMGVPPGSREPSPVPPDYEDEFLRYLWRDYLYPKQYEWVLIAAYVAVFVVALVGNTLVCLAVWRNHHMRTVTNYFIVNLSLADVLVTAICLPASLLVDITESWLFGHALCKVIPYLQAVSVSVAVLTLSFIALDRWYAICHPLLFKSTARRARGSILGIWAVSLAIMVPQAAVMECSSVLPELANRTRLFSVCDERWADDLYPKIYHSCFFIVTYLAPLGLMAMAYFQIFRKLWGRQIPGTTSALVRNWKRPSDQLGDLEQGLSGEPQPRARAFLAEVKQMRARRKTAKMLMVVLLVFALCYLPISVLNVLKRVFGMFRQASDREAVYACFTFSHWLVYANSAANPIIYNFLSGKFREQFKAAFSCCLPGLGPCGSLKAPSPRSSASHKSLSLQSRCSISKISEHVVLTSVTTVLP

Orexin receptor type 2 = biological target: T3, Orexin receptor type 2 (Homo sapiens, UniProt O43614); experiment: Agonist activity at human OX2 receptor overexpressed in CHO-RD-HGA16 cells assessed as calcium mobilization after 15 mins by fluorescence assay
T3 sequence (O43614 whole entry): T1 sequence (whole entry)

Compound | Activity [1] | Activity [2] | Percent activation at 10 uM [1] [%] | EC50 (Orexin receptor type 2) [nM] | Calcium response at 10 uM relative to control [2] [%]
CC[C@H](C)[C@H](NC(=O)CNC(=O)[C@@H](C)NC(=O)[C@H](C)NC(=O)[C@H](Cc1cnc[nH]1)NC(=O)[C@H](CC(N)=O)NC(=O)CNC(=O)[C@H](C)NC(=O)CNC(=O)[C@H](Cc1cnc[nH]1)NC(=O)[C@H](CC(C)C)NC(=O)[C@H](CC(C)C)NC(=O)[C@H](CCC(=O)O)NC(=O)[C@@H](N)Cc1ccc(O)cc1)C(=O)N[C@@H](CC(C)C)C(=O)N[C@H](C(=O)N[C@@H](CC(C)C)C(N)=O)[C@@H](C)O | – | inactive | < 50 | – | –
CC[C@H](C)[C@H](NC(=O)CNC(=O)[C@H](C)NC(=O)[C@H](C)NC(=O)[C@H](Cc1cnc[nH]1)NC(=O)[C@@H](CC(N)=O)NC(=O)CNC(=O)[C@H](C)NC(=O)CNC(=O)[C@H](Cc1cnc[nH]1)NC(=O)[C@H](CC(C)C)NC(=O)[C@H](CC(C)C)NC(=O)[C@H](CCC(=O)O)NC(=O)[C@@H](N)Cc1ccc(O)cc1)C(=O)N[C@@H](CC(C)C)C(=O)N[C@H](C(=O)N[C@@H](CC(C)C)C(N)=O)[C@@H](C)O | – | inactive | < 50 | – | –
CC[C@H](C)[C@H](NC(=O)CNC(=O)[C@H](C)NC(=O)[C@H](C)NC(=O)[C@H](Cc1cnc[nH]1)NC(=O)[C@H](CC(N)=O)NC(=O)CNC(=O)[C@H](C)NC(=O)CNC(=O)[C@H](Cc1cnc[nH]1)NC(=O)[C@H](CC(C)C)NC(=O)[C@H](CC(C)C)NC(=O)[C@H](CCC(=O)O)NC(=O)[C@@H](N)Cc1ccc(O)cc1)C(=O)N[C@H](CC(C)C)C(=O)N[C@H](C(=O)N[C@@H](CC(C)C)C(N)=O)[C@@H](C)O | – | inactive | < 50 | – | –
CC(C)C[C@H](NC(=O)[C@@H](NC(=O)[C@H](CC(C)C)NC(=O)[C@H](C)NC(=O)CNC(=O)[C@H](C)NC(=O)[C@H](C)NC(=O)[C@H](Cc1cnc[nH]1)NC(=O)[C@H](CC(N)=O)NC(=O)CNC(=O)[C@H](C)NC(=O)CNC(=O)[C@H](Cc1cnc[nH]1)NC(=O)[C@H](CC(C)C)NC(=O)[C@H](CC(C)C)NC(=O)[C@H](CCC(=O)O)NC(=O)[C@@H](N)Cc1ccc(O)cc1)[C@@H](C)O)C(N)=O (H-YELLHGAGNHAAGALTL-NH2) | inactive | inactive | – | – | –
CC[C@H](C)[C@H](NC(=O)CNC(=O)[C@H](C)NC(=O)[C@H](C)NC(=O)[C@H](Cc1cnc[nH]1)NC(=O)[C@H](CC(N)=O)NC(=O)CNC(=O)[C@H](C)NC(=O)CNC(=O)[C@H](Cc1cnc[nH]1)NC(=O)[C@H](CC(C)C)NC(=O)[C@H](CC(C)C)NC(=O)[C@H](CCC(=O)O)NC(=O)[C@@H](N)Cc1ccc(O)cc1)C(=O)N[C@@H](CC(C)C)C(=O)N[C@@H](C)C(=O)N[C@@H](CC(C)C)C(N)=O (H-YELLHGAGNHAAGILAL-NH2) | – | – | < 50 | – | < 50
CC[C@H](C)[C@H](NC(=O)CNC(=O)[C@H](C)NC(=O)[C@H](C)NC(=O)[C@H](Cc1cnc[nH]1)NC(=O)[C@H](CC(N)=O)NC(=O)CNC(=O)[C@H](C)NC(=O)CNC(=O)[C@H](Cc1cnc[nH]1)NC(=O)[C@H](CC(C)C)NC(=O)[C@H](CC(C)C)NC(=O)[C@H](CCC(=O)O)NC(=O)[C@@H](N)Cc1ccc(O)cc1)C(=O)N[C@@H](CC(C)C)C(=O)N[C@H](C(=O)N[C@@H](C)C(N)=O)[C@@H](C)O (H-YELLHGAGNHAAGILTA-NH2) | inactive | – | – | – | < 50

The remaining lines, values ahead:

Activity [1] | Activity [2] | Percent activation at 10 uM [1] [%] | EC50 (Orexin receptor type 2) [nM] | Calcium response at 10 uM relative to control [2] [%] | Compound
inactive | inactive | – | – | – | CC[C@@H](C)[C@@H](NC(=O)CNC(=O)[C@H](C)NC(=O)[C@H](C)NC(=O)[C@H](Cc1cnc[nH]1)NC(=O)[C@H](CC(N)=O)NC(=O)CNC(=O)[C@H](C)NC(=O)CNC(=O)[C@H](Cc1cnc[nH]1)NC(=O)[C@H](CC(C)C)NC(=O)[C@H](CC(C)C)NC(=O)[C@H](CCC(=O)O)NC(=O)[C@@H](N)Cc1ccc(O)cc1)C(=O)N[C@@H](CC(C)C)C(=O)N[C@H](C(=O)N[C@@H](CC(C)C)C(N)=O)[C@@H](C)O
inactive | inactive | – | – | – | CC[C@H](C)[C@H](NC(=O)CNC(=O)[C@H](C)NC(=O)[C@H](C)NC(=O)[C@H](Cc1cnc[nH]1)NC(=O)[C@H](CC(N)=O)NC(=O)CNC(=O)[C@H](C)NC(=O)CNC(=O)[C@H](Cc1cnc[nH]1)NC(=O)[C@H](CC(C)C)NC(=O)[C@H](CC(C)C)NC(=O)[C@H](CCC(=O)O)NC(=O)[C@@H](N)Cc1ccc(O)cc1)C(=O)N[C@@H](CC(C)C)C(=O)N[C@@H](C(=O)N[C@@H](CC(C)C)C(N)=O)[C@H](C)O
inactive | inactive | – | – | – | CC[C@H](C)[C@H](NC(=O)CNC(=O)[C@H](C)NC(=O)[C@H](C)NC(=O)[C@H](Cc1cnc[nH]1)NC(=O)[C@H](CC(N)=O)NC(=O)CNC(=O)[C@H](C)NC(=O)CNC(=O)[C@H](Cc1cnc[nH]1)NC(=O)[C@H](CC(C)C)NC(=O)[C@H](CC(C)C)NC(=O)[C@H](CCC(=O)O)NC(=O)[C@@H](N)Cc1ccc(O)cc1)C(=O)N[C@@H](CC(C)C)C(=O)N[C@H](C(=O)N[C@H](CC(C)C)C(N)=O)[C@@H](C)O
– | – | – | 1040 | < 50 | CC[C@H](C)[C@H](NC(=O)CNC(=O)[C@H](C)NC(=O)[C@H](C)NC(=O)[C@H](Cc1cnc[nH]1)NC(=O)[C@H](CC(N)=O)NC(=O)CNC(=O)[C@H](CO)NC(=O)[C@H](C)NC(=O)[C@H](CCC(N)=O)NC(=O)[C@H](CC(C)C)NC(=O)[C@H](CC(C)C)NC(=O)[C@H](CCCNC(=N)N)NC(=O)[C@@H](N)CCC(N)=O)C(=O)N[C@@H](CC(C)C)C(=O)N[C@H](C(=O)N[C@@H](CCSC)C(N)=O)[C@@H](C)O (H-QRLLQASGNHAAGILTM-NH2)
– | – | < 50 | – | < 50 | CC[C@H](C)[C@H](NC(=O)[C@H](C)NC(=O)[C@H](C)NC(=O)[C@H](C)NC(=O)[C@H](Cc1cnc[nH]1)NC(=O)[C@H](CC(N)=O)NC(=O)CNC(=O)[C@H](C)NC(=O)CNC(=O)[C@H](Cc1cnc[nH]1)NC(=O)[C@H](CC(C)C)NC(=O)[C@H](CC(C)C)NC(=O)[C@H](CCC(=O)O)NC(=O)[C@@H](N)Cc1ccc(O)cc1)C(=O)N[C@@H](CC(C)C)C(=O)N[C@H](C(=O)N[C@@H](CC(C)C)C(N)=O)[C@@H](C)O (H-YELLHGAGNHAAAILTL-NH2)
inactive | inactive | – | – | – | CC[C@H](C)[C@H](NC(=O)CNC(=O)[C@H](C)NC(=O)[C@H](C)NC(=O)[C@H](Cc1cnc[nH]1)NC(=O)[C@H](CC(N)=O)NC(=O)CNC(=O)[C@H](C)NC(=O)CNC(=O)[C@H](Cc1cnc[nH]1)NC(=O)[C@H](CC(C)C)NC(=O)[C@H](CC(C)C)NC(=O)[C@H](CCC(=O)O)NC(=O)[C@@H](N)Cc1ccc(O)cc1)C(=O)N[C@@H](C)C(=O)N[C@H](C(=O)N[C@@H](CC(C)C)C(N)=O)[C@@H](C)O (H-YELLHGAGNHAAGIATL-NH2)

— ChEMBL document CHEMBL3102805, “Truncated Orexin Peptides: Structure-Activity Relationship Studies” (ACS Med Chem Lett, 2013)
